From ChEMBL document CHEMBL3885881, “DrugMatrix”

Species on record: Rattus norvegicus
Test: DrugMatrix - Regimen: Daily Repeat
Assay type: toxicity, organism-based, Sprague-Dawley
Set-up: regimen Daily Repeat, gender Male, age 6-8 weeks
Settings: in vivo, po, route oral GAVAGE, vehicle 100 % WATER; for ABSOLUTE BASOPHIL / ABSOLUTE EOSINOPHIL / ABSOLUTE LYMPHOCYTE / ABSOLUTE MONOCYTE / ABSOLUTE SEGMENTED NEUTROPHIL / BASOPHIL / EOSINOPHIL / ERYTHROCYTE COUNT / HEMATOCRIT / HEMOGLOBIN / LEUKOCYTE COUNT / LYMPHOCYTE / MEAN CORPUSCULAR HEMOGLOBIN / MEAN CORPUSCULAR HEMOGLOBIN CONCENTRATION / MEAN CORPUSCULAR VOLUME / MONOCYTE / NEUTROPHIL / NUCLEATED RED BLOOD CELLS / PLATELET COUNT: tissue Blood; for ALANINE AMINOTRANSFERASE / ALBUMIN / ALKALINE PHOSPHATASE / ASPARTATE AMINOTRANSFERASE / BLOOD UREA NITROGEN / CARBON DIOXIDE / CHLORIDE / CHOLESTEROL / CREATINE PHOSPHOKINASE / CREATININE / GLUCOSE / LACTATE DEHYDROGENASE / LIPASE / PHOSPHORUS / POTASSIUM / SODIUM / TOTAL BILIRUBIN / TOTAL PROTEIN / URIC ACID: tissue Plasma
[1] = 28 mg/kg, 120 h, dose level Low, time 5 day
[2] = 100 mg/kg, 72 h, dose level High, time 3 day
[3] = 100 mg/kg, 120 h, dose level High, time 5 day

Which “ABSOLUTE BASOPHIL” value [1] does the source give for `Cn1cc[nH]c1=S` [METHIMAZOLE] here?
The value was 0 CELLS/uL.

And the “ABSOLUTE EOSINOPHIL” value [1]?
The value was 0 CELLS/uL.

And the “ABSOLUTE LYMPHOCYTE” value [1]?
Its value is 6311.33 CELLS/uL.

And the “ABSOLUTE MONOCYTE” value [1]?
The value was 62 CELLS/uL.

What about the “ABSOLUTE SEGMENTED NEUTROPHIL” value [1] of the same molecule?
The value was 560 CELLS/uL.

And the BASOPHIL [1]?
The BASOPHIL was 0%.

And the EOSINOPHIL [1]?
Its EOSINOPHIL is 0%.

What about the “ERYTHROCYTE COUNT” value [1] of the same molecule?
Its value is 5.37 x10E6/uL.

What about the HEMATOCRIT [1] of the same molecule?
The HEMATOCRIT was 33.8%.

What about the HEMOGLOBIN [1] of the same molecule?
The HEMOGLOBIN was 13.17 G/DL.

And the “LEUKOCYTE COUNT” value [1]?
The value was 6.93 x10E3/uL.

And the LYMPHOCYTE [1]?
Its LYMPHOCYTE is 90.67%.

And the “MEAN CORPUSCULAR HEMOGLOBIN” value [1]?
Its value is 24.57 pg.

What about the “MEAN CORPUSCULAR HEMOGLOBIN CONCENTRATION” value [1] of the same molecule?
The value was 38.93 G/DL.

What about the “MEAN CORPUSCULAR VOLUME” value [1] of the same molecule?
The value was 63.03 fL.

And the MONOCYTE [1]?
The MONOCYTE was 0.67%.

What about the NEUTROPHIL [1] of the same molecule?
The NEUTROPHIL was 8.67%.

What about the “NUCLEATED RED BLOOD CELLS” value [1] of the same molecule?
Its value is 0.33 /100WBC.

What about the “PLATELET COUNT” value [1] of the same molecule?
Its value is 1274.33 x10E3/uL.

And the “ALANINE AMINOTRANSFERASE” value [1]?
Its value is 41.33 u/L.

What about the ALBUMIN [1] of the same molecule?
The ALBUMIN was 4.13 G/DL.

What about the “ALKALINE PHOSPHATASE” value [1] of the same molecule?
Its value is 368.67 u/L.

And the “ASPARTATE AMINOTRANSFERASE” value [1]?
Its value is 68.67 u/L.

What about the “BLOOD UREA NITROGEN” value [1] of the same molecule?
Its value is 19.67 mg/dL.

And the “CARBON DIOXIDE” value [1]?
Its value is 30.33 mmol/L.

And the CHLORIDE [1]?
Its CHLORIDE is 101 MEQ/L.

What about the CHOLESTEROL [1] of the same molecule?
The CHOLESTEROL was 101.33 mg/dL.

What about the “CREATINE PHOSPHOKINASE” value [1] of the same molecule?
The value was 173 u/L.

And the CREATININE [1]?
Its CREATININE is 0.18 mg/dL.

What about the GLUCOSE [1] of the same molecule?
Its GLUCOSE is 143.67 mg/dL.

What about the “LACTATE DEHYDROGENASE” value [1] of the same molecule?
The value was 143.67 u/L.

What about the LIPASE [1] of the same molecule?
The LIPASE was 9 u/L.

And the PHOSPHORUS [1]?
The PHOSPHORUS was 10.27 mg/dL.

What about the POTASSIUM [1] of the same molecule?
Its POTASSIUM is 4.87 MEQ/L.

And the SODIUM [1]?
The SODIUM was 144.47 MEQ/L.

And the “TOTAL BILIRUBIN” value [1]?
Its value is 0.17 mg/dL.

And the “TOTAL PROTEIN” value [1]?
The value was 6.43 G/DL.

And the “URIC ACID” value [1]?
Its value is 0.53 mg/dL.

And the “ABSOLUTE BASOPHIL” value [2]?
The value was 0 CELLS/uL.

What about the “ABSOLUTE EOSINOPHIL” value [2] of the same molecule?
Its value is 0 CELLS/uL.

What about the “ABSOLUTE LYMPHOCYTE” value [2] of the same molecule?
Its value is 13500.67 CELLS/uL.

What about the “ABSOLUTE MONOCYTE” value [2] of the same molecule?
Its value is 119.33 CELLS/uL.

And the “ABSOLUTE SEGMENTED NEUTROPHIL” value [2]?
Its value is 980 CELLS/uL.

And the BASOPHIL [2]?
The BASOPHIL was 0%.

What about the EOSINOPHIL [2] of the same molecule?
The EOSINOPHIL was 0%.

And the “ERYTHROCYTE COUNT” value [2]?
Its value is 5.56 x10E6/uL.

And the HEMATOCRIT [2]?
Its HEMATOCRIT is 35.97%.

What about the HEMOGLOBIN [2] of the same molecule?
Its HEMOGLOBIN is 14.1 G/DL.

And the “LEUKOCYTE COUNT” value [2]?
Its value is 14.6 x10E3/uL.

What about the LYMPHOCYTE [2] of the same molecule?
Its LYMPHOCYTE is 92.67%.

What about the “MEAN CORPUSCULAR HEMOGLOBIN” value [2] of the same molecule?
Its value is 25.4 pg.

And the “MEAN CORPUSCULAR HEMOGLOBIN CONCENTRATION” value [2]?
Its value is 39.2 G/DL.

What about the “MEAN CORPUSCULAR VOLUME” value [2] of the same molecule?
Its value is 64.73 fL.

What about the MONOCYTE [2] of the same molecule?
Its MONOCYTE is 1%.

What about the NEUTROPHIL [2] of the same molecule?
The NEUTROPHIL was 6.33%.

And the “NUCLEATED RED BLOOD CELLS” value [2]?
The value was 0.67 /100WBC.

And the “PLATELET COUNT” value [2]?
Its value is 1423.33 x10E3/uL.

What about the “ALANINE AMINOTRANSFERASE” value [2] of the same molecule?
The value was 46.33 u/L.

And the ALBUMIN [2]?
Its ALBUMIN is 4.03 G/DL.

What about the “ALKALINE PHOSPHATASE” value [2] of the same molecule?
Its value is 326.67 u/L.

And the “ASPARTATE AMINOTRANSFERASE” value [2]?
Its value is 72 u/L.

And the “BLOOD UREA NITROGEN” value [2]?
Its value is 11 mg/dL.

What about the “CARBON DIOXIDE” value [2] of the same molecule?
The value was 26 mmol/L.

And the CHLORIDE [2]?
Its CHLORIDE is 103 MEQ/L.

What about the CHOLESTEROL [2] of the same molecule?
The CHOLESTEROL was 84.67 mg/dL.

What about the “CREATINE PHOSPHOKINASE” value [2] of the same molecule?
Its value is 581 u/L.

What about the CREATININE [2] of the same molecule?
Its CREATININE is 0.17 mg/dL.

And the GLUCOSE [2]?
The GLUCOSE was 154.33 mg/dL.

What about the “LACTATE DEHYDROGENASE” value [2] of the same molecule?
Its value is 228.33 u/L.

What about the LIPASE [2] of the same molecule?
The LIPASE was 9 u/L.

And the PHOSPHORUS [2]?
The PHOSPHORUS was 11.6 mg/dL.

What about the POTASSIUM [2] of the same molecule?
The POTASSIUM was 6.41 MEQ/L.

What about the SODIUM [2] of the same molecule?
Its SODIUM is 143.17 MEQ/L.

And the “TOTAL BILIRUBIN” value [2]?
The value was 0.17 mg/dL.

And the “TOTAL PROTEIN” value [2]?
Its value is 5.97 G/DL.

What about the “URIC ACID” value [2] of the same molecule?
Its value is 1.63 mg/dL.

And the “ABSOLUTE BASOPHIL” value [3]?
The value was 0 CELLS/uL.

And the “ABSOLUTE EOSINOPHIL” value [3]?
The value was 40.33 CELLS/uL.

And the “ABSOLUTE LYMPHOCYTE” value [3]?
Its value is 11963 CELLS/uL.

And the “ABSOLUTE MONOCYTE” value [3]?
The value was 169.33 CELLS/uL.

What about the “ABSOLUTE SEGMENTED NEUTROPHIL” value [3] of the same molecule?
The value was 727.33 CELLS/uL.

And the BASOPHIL [3]?
The BASOPHIL was 0%.

And the EOSINOPHIL [3]?
The EOSINOPHIL was 0.33%.

What about the “ERYTHROCYTE COUNT” value [3] of the same molecule?
The value was 5.44 x10E6/uL.

And the HEMATOCRIT [3]?
The HEMATOCRIT was 33.7%.

What about the HEMOGLOBIN [3] of the same molecule?
Its HEMOGLOBIN is 13.17 G/DL.

What about the “LEUKOCYTE COUNT” value [3] of the same molecule?
The value was 12.9 x10E3/uL.

What about the LYMPHOCYTE [3] of the same molecule?
The LYMPHOCYTE was 93%.

What about the “MEAN CORPUSCULAR HEMOGLOBIN” value [3] of the same molecule?
Its value is 24.23 pg.

And the “MEAN CORPUSCULAR HEMOGLOBIN CONCENTRATION” value [3]?
Its value is 39.1 G/DL.

What about the “MEAN CORPUSCULAR VOLUME” value [3] of the same molecule?
Its value is 61.97 fL.

And the MONOCYTE [3]?
Its MONOCYTE is 1.33%.

And the NEUTROPHIL [3]?
Its NEUTROPHIL is 5.33%.

What about the “NUCLEATED RED BLOOD CELLS” value [3] of the same molecule?
Its value is 0 /100WBC.

And the “PLATELET COUNT” value [3]?
The value was 1288.67 x10E3/uL.

And the “ALANINE AMINOTRANSFERASE” value [3]?
The value was 33.33 u/L.

And the ALBUMIN [3]?
The ALBUMIN was 3.97 G/DL.

And the “ALKALINE PHOSPHATASE” value [3]?
Its value is 316.33 u/L.

And the “ASPARTATE AMINOTRANSFERASE” value [3]?
The value was 51.33 u/L.

What about the “BLOOD UREA NITROGEN” value [3] of the same molecule?
The value was 17.33 mg/dL.

What about the “CARBON DIOXIDE” value [3] of the same molecule?
The value was 21 mmol/L.

And the CHLORIDE [3]?
The CHLORIDE was 104.67 MEQ/L.

What about the CHOLESTEROL [3] of the same molecule?
The CHOLESTEROL was 79.67 mg/dL.

What about the “CREATINE PHOSPHOKINASE” value [3] of the same molecule?
Its value is 460 u/L.

What about the CREATININE [3] of the same molecule?
The CREATININE was 0.19 mg/dL.

And the GLUCOSE [3]?
Its GLUCOSE is 165.33 mg/dL.

And the “LACTATE DEHYDROGENASE” value [3]?
The value was 433 u/L.

What about the LIPASE [3] of the same molecule?
The LIPASE was 11.33 u/L.

And the PHOSPHORUS [3]?
Its PHOSPHORUS is 10.1 mg/dL.

And the POTASSIUM [3]?
Its POTASSIUM is 5.88 MEQ/L.

And the SODIUM [3]?
The SODIUM was 143.5 MEQ/L.

What about the “TOTAL BILIRUBIN” value [3] of the same molecule?
The value was 0.2 mg/dL.

And the “TOTAL PROTEIN” value [3]?
The value was 6.17 G/DL.

What about the “URIC ACID” value [3] of the same molecule?
Its value is 1.43 mg/dL.
